Consider three compounds from patent US4732901A, “Certain pyridyl, thienyl or furyl propenoic acids or esters having anti-inflammatory anti-allergic properties” (Beecham Group p.l.c., priority 1985, dated 1988).

Each structure is given as a SMILES string.

The subject of test [1] is cyclo-oxygenase (bovine seminal vesicle microsomes). The test is described as follows: Cyclo-oxygenase Screen. In kind it is biochemical. The note with it: at 50 μM compound; decrease in prostaglandin formation. As to the method:
(2) Cyclo-oxygenase Screen
Compounds were preincubated with the incubation constitutents for 5 min at 37° C. before the reaction was started by the addition of the arachidonic acid. The reaction was continued at 37° C. for 2 min, then stopped by placing the incubations on ice and the addition of 1.2 ml 0.2M citric acid. Unmetabolised substrate and prostaglandin products were extracted in ethyl acetate (2×4 ml), the combined extracts washed with 0.8 ml water, and separated by thin-layer chromatography (Kieselgel GF254 plates in ethyl acetate:acetone:glacial acetic acid, 90:10:1, v/v). Recovery was 65-80%. The regions on the thin-layer chromatography plate that chromatographed with authentic arachidonic acid or prostaglandins E2 and F2 α (Rf 's 0.70, 0.28 and 0.16 respectively) were scraped and the radioactivity in each determined by liquid scintillation counting with a correction for quenching being made by the external standard-channels ratio method. Inhibition of cyclo-oxygenase activity was calculated from the decrease in prostaglandin formation. Each compound concentration was tested in triplicate and the 50% inhibitory concentration, if determined, was calculated by linear regression from the inhibitory data at, at least three different compound concentrations.

The target of test [2] is T1, 5-Lipoxygenase enzyme (10,000 g supernatant from RBL-1 cells) (Rattus norvegicus, UniProt P12527).
T1 construct: prepared as a 10,000 g supernatant from RBL-1 cells; endogenous in cells; host or cells: RBL-1 cells (10,000 g supernatant)
T1 sequence (P12527 1-673): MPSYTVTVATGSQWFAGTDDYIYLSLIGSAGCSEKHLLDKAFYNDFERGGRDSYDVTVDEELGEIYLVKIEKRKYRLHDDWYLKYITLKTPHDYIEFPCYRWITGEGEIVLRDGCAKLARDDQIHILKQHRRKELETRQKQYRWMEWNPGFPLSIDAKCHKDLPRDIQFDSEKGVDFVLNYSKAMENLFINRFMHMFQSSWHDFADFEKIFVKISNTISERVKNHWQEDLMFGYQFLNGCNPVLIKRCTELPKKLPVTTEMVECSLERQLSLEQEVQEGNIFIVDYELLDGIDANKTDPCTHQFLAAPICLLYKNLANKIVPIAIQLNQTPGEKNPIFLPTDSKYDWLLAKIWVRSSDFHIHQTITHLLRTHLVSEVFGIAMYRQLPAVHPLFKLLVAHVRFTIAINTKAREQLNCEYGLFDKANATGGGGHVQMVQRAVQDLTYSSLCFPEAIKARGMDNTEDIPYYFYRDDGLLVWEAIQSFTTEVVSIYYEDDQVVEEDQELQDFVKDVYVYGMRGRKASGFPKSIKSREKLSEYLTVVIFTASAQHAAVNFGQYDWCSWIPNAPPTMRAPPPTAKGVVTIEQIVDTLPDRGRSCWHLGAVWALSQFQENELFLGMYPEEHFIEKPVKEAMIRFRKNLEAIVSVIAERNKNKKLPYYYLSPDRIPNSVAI
The test is described as follows: RBL-1 5-Lipoxygenase Screen. It is filed as biochemical. The note with it: decrease in 5-HETE + 5,12-diHETE formation relative to control, read-out: Per cent inhibition of 5-lipoxygenase at × μM concentration; for inhibition at 20 µM: at 20 μM compound. As to the method:
(1) RBL-1 5-Lipoxygenase Screen
5-Lipoxygenase enzyme was prepared as a 10,000 g supernatant from RBL-1 cells by the method of Jakschik (Jakschik, B. A., F. F. Sun, L. M. Lee, and M. M. Steinhoff, 1980, Biochem. Biophys. Res. Comm. 95, 103). The 10,000 g supernatant was diluted with homogenization buffer to the equivalent of 1.5-2.5×10^7 cells. ml.^-1 and made 2 mM with respect to CaCl2. Aliquots of 0.5 ml were then dispensed into tubes, and incubated at 29° C. with 5 ul ethanol or compound in ethanol at the desired concentration for 2 min. Then [1-^14 C] arachidonic acid was added in buffer to give a final concentration of 6.3 uM and 0.2 uCi per incubation, and the reaction continued at 29° C. for 2 min. The reaction was terminated by adding 1 ml of acetone and cooling on ice, 0.5 ml of ice-cold saline and 100 ul of 2N formic acid were added, and the mixture was extracted with 2×2 ml of chloroform. The extract was stored under N2 at -20° C. until analysis by chromatography. Activity was measured as the percentage of total radioactivity found in 5-HETE and 5,12-diHETE, and inhibition calculated as the decrease in formation of the sum of these two species in compound-treated incubates relative to control incubations.

For the compound `CCCCCCCCCCCC#Cc1cnccc1C=C(C(=O)O)C(=O)O` [Example 4, 2-[3-(1-Tridecynyl)-4-pyridyl]methylenepropane-1,3-dioic acid], in test [1], the “Per cent inhibition of cyclo-oxygenase at 50 μM concentration” value is 15%. Moreover, in test [2], the inhibition at 20 µM is 72%.

Turning to `CCCCCCCCCCCC#Cc1cnccc1/C=C/C(=O)O` [Example 2, 3-[3-(1-Tridecynyl)-4-pyridyl)prop-2-enoic acid], in test [2], the inhibition at 20 µM was 30%.

For `CCCCCCCCCCCC#Cc1ccoc1/C=C/C(=O)O` [Example 7, 3-[3-(1-Tridecynyl)-2-furanyl]prop-2-enoic acid], the “Per cent inhibition of cyclo-oxygenase at 50 μM concentration” value in test [1] worked out at 46%. Also, in test [2] (at 5 μM compound), the inhibition at 5 µM was 38%.
